# Ends that are not written are not given here.
# Test system: CHO-K1, NIH3T3, A549, Cos-7 and BE(2)C
# Experiment: Transfection with β-galactosidase reporter plasmid pCMV•SPORT-β-gal, "before" and "after" peptide protocols, β-gal activity (ONPG, OD 405)
# Assay type: cell-based
# Conditions: FIG. 1-5
# Procedure: Transfection of CHO-K1, NIH3T3, A549, Cos-7 and BE(2)C with β-galactosidase reporter plasmid pCMV•SPORT-β-gal was carried out as follows:
# Cells were plated in a 96-well plates with 100 μl of media containing 10% fetal calf serum the day before transfection such that a desired confluency (70%-95%) was achieved. The following day a transfection agent that includes a liposomal composition of the lipid DMTS (Dimyrstyl-tetrahydroxy-spermine) and DOPE (2:1 DMTS:DOPE) and DNA were mixed in Opti-MEM to form DNA/lipid complexes. Complexes were formed by adding various amounts of lipids (0.1 to 0.35 μl) to 100 μl of Opti-MEM. DNA (100 ng) was added to 100 μl Opti-MEM. The DNA and lipid solutions were then mixed to form DNA lipid complexes. The complexes were incubated for at least 15 minutes after which added to the DNA lipid complexes, was 20 μl of various amounts of a peptide having the sequence of a Prototypical Avian reovirus fusogenic peptide provided herein, as follows:
# and incubated for 15 minutes to form a DNA/lipid/peptide complex. […] Total activity was determined by reading the OD at 405 using Bio-Rad Benchmark Microplate Spectrophotometer. […]
# were added to the DNA mixture and incubated for 15 minutes. […] Total activity was determined by reading the OD at 405 using Bio-Rad Benchmark Microplate Spectrophotometer.
sequence,measurement,setting,value
"RMPPGSCNGATAVFGNVHKKKKKKKKKKKKKKKK [peptide, Prototypical Avian reovirus fusogenic peptide with 16 lysine residues]",amount of lipid required to enhance transfection,"DMTS:DOPE 2:1 liposomes plus peptide, before or after protocol",reduced
same,effect of adding the peptide on transfection,"DMTS:DOPE 2:1 liposomes, peptide added to DNA before lipid, or to DNA/lipid complex",enhancement of transfection
